{
  "source": "ChEMBL document CHEMBL1132649",
  "about": "“Molecular modeling and synthesis of inhibitors of herpes simplex virus type 1 uracil-DNA glycosylase” (J Med Chem, 1999)",
  "tested_on": "Uracil-DNA glycosylase (Herpes simplex virus type 1)",
  "test": "Inhibitory potency against HSV-1 UDG( Herpes Simplex virus type-I Uracil DNA glycosylase); 10-15% inhibition was observed at a concentration of 40 uM",
  "details": "Human alphaherpesvirus 1",
  "data": [
    {"smiles": "CCCCCCc1ccc(Nc2cc(=O)[nH]c(=O)n2CC)cc1", "values": [
      {"measurement": "inhibition", "value": 15, "unit": "%"}
    ]},
    {"smiles": "CCCCCCc1ccc(Nc2cc(=O)[nH]c(=O)n2CCC)cc1", "values": [
      {"measurement": "inhibition", "value": 15, "unit": "%"}
    ]},
    {"smiles": "CCCCCCc1ccc(Nc2cc(=O)[nH]c(=O)n2C)cc1", "values": [
      {"measurement": "inhibition", "value": 15, "unit": "%"}
    ]}
  ]
}
